Laboratory results from patent publication US12168805B2, “Methods and reagents for detecting piperaquine-resistant plasmodium falciparum malaria” (priority 2016, dated 2024).

What was measured:
[1] = test system: culture-adapted P. falciparum parasite lines; assay: in-vitro Piperaquine Survival Assay (PSA) on culture-adapted parasites; assay type: cell-based, Plasmodium falciparum; settings: for in-vitro PSA survival rate (%): 200 nM PPQ for 48 hours
Protocol: (§1) Cryopreserved parasites were culture-adapted as described.^12 Susceptibility to PPQ was investigated using in-vitro PSA for culture-adapted parasites and ex-vivo PSA for fresh isolates. Survival rates were assessed microscopically and parasites with a survival rate ≥10% were considered PPQ-resistant.^7 msp1, msp2 and glurp polymorphisms were determined to distinguish recrudescent from new infections.^13 Sequencing of the K13-propeller domain was used to screen for ART-resistance.^1 Whole-genome sequencing was performed using Illumina paired-reads sequencing.^1 Data were integrated into the Whole-genome Data Manager (WDM) database^14 and exomes of PPQ-resistant and -sensitive lines were compared after excluding low-coverage positions (i.e., lower than 25% of the genome-wide mean coverage). Genes from highly variable multigene families (var, rifin, phist and stevor) were excluded.^1 CNVs and SNPs were investigated using PlasmoCNVScan and Phen2gen software (see below). 1+PfPM2 and Pfmdr1 copy number was determined by qPCR (see below). Steady-state PfPM2 mRNA levels were measured by RT-qPCR (see below) and PfPM2 protein expression by immunoblotting (see below).
In-vitro susceptibility to PPQ was investigated using the in-vitro or the ex-vivo PSA, which is based on exposing very early ring-stage parasites to 200 nM PPQ for 48 hours, washing away the drug, and assessing parasite growth after a further 24 hours of culture. Survival rates at the 72 hour time point were assessed microscopically by counting the proportion of viable parasites in exposed and non-exposed cultures that developed into second-generation rings or trophozoites with normal morphology. Parasites with a survival rate ≥10% were considered PPQ-resistant.^5

[2] = test system: freshly collected P. falciparum patient isolates; assay: ex-vivo Piperaquine Survival Assay (PSA) on fresh isolates; assay type: cell-based, Plasmodium falciparum
Protocol: Blood samples were collected into acid-citrate-dextrose tubes (Becton-Dickinson, USA) before treatment and sent to Institut Pasteur in Cambodia within 24 hours. A sub-set of freshly collected samples was used to perform the ex-vivo PSA.^7 All samples were cryopreserved in glycerolyte. Red cell pellets were stored at −20° C. for molecular studies. Blood spots were prepared on day 0 and when applicable on the day of recrudescence.
as §1, with “Genes from highly variable multigene families (var, rifin, phist and stevor) were excluded.^1 CNVs and SNPs were investigated using PlasmoCNVScan and Phen2gen software (see below).” left out, “Steady-state PfPM2 mRNA levels were measured by RT-qPCR (see below) and PfPM2 protein expression by immunoblotting (see below).” left out

## Clc1ccc2c(N3CCN(CCCN4CCN(c5ccnc6cc(Cl)ccc56)CC4)CC3)ccnc2c1 [PPQ, piperaquine]
[1]; 3D7 reference line
  in-vitro susceptibility to PPQ: Sensitive (sensitive if survival rates were <10%)
[1]; 3D7 reference line, survival at 72 hour
  in-vitro PSA survival rate (%): 0.1%
[1]; one sequence with DNA expansion type 3
  In-vitro PSA survival rate, PSA mean value: 39.3%
[1]; parasite line 6218
  in-vitro susceptibility to PPQ: Resistant (resistant if survival rates were ≥10%)
[1]; parasite line 6218 (2012, Battambang)
  in-vitro PSA survival rate (%): 40.8%
[1]; parasite line 6219
  in-vitro susceptibility to PPQ: Resistant (resistant if survival rates were ≥10%)
[1]; parasite line 6219 (2012, Battambang)
  in-vitro PSA survival rate (%): 58.6%
[1]; parasite line 6224
  in-vitro susceptibility to PPQ: Resistant (resistant if survival rates were ≥10%)
[1]; parasite line 6224 (2012, Pursat)
  in-vitro PSA survival rate (%): 61.4%
[1]; parasite line 6229
  in-vitro susceptibility to PPQ: Resistant (resistant if survival rates were ≥10%)
[1]; parasite line 6229 (2012, Battambang)
  in-vitro PSA survival rate (%): 46.6%
[1]; parasite line 6237
  in-vitro susceptibility to PPQ: Sensitive (sensitive if survival rates were <10%)
[1]; parasite line 6237 (2012, Kampong Thom)
  in-vitro PSA survival rate (%): 0.8%
[1]; parasite line 6246
  in-vitro susceptibility to PPQ: Resistant (resistant if survival rates were ≥10%)
[1]; parasite line 6246 (2012, Kampong Speu)
  in-vitro PSA survival rate (%): 36.9%
[1]; parasite line 6261
  in-vitro susceptibility to PPQ: Resistant (resistant if survival rates were ≥10%)
[1]; parasite line 6261 (2012, Pursat)
  in-vitro PSA survival rate (%): 70.5%
[1]; parasite line 6267
  in-vitro susceptibility to PPQ: Sensitive (sensitive if survival rates were <10%)
[1]; parasite line 6267 (2012, Kampong Speu)
  in-vitro PSA survival rate (%): 0.5%
[1]; parasite line 6272
  in-vitro susceptibility to PPQ: Resistant (resistant if survival rates were ≥10%)
[1]; parasite line 6272 (2012, Battambang)
  in-vitro PSA survival rate (%): 40.0%
[1]; parasite line 6273
  in-vitro susceptibility to PPQ: Sensitive (sensitive if survival rates were <10%)
[1]; parasite line 6273 (2012, Kampong Speu)
  in-vitro PSA survival rate (%): 0.2%
[1]; parasite line 6280
  in-vitro susceptibility to PPQ: Resistant (resistant if survival rates were ≥10%)
[1]; parasite line 6280 (2012, Battambang)
  in-vitro PSA survival rate (%): 28.9%
[1]; parasite line 6293
  in-vitro susceptibility to PPQ: Resistant (resistant if survival rates were ≥10%)
[1]; parasite line 6293 (2012, Battambang)
  in-vitro PSA survival rate (%): 39.3%
[1]; parasite line 6302
  in-vitro susceptibility to PPQ: Resistant (resistant if survival rates were ≥10%)
[1]; parasite line 6302 (2012, Battambang)
  in-vitro PSA survival rate (%): 42.5%
[1]; parasite line 6320
  in-vitro susceptibility to PPQ: Resistant (resistant if survival rates were ≥10%)
[1]; parasite line 6320 (2012, Battambang)
  in-vitro PSA survival rate (%): 62.1%
[1]; parasite line 6337
  in-vitro susceptibility to PPQ: Sensitive (sensitive if survival rates were <10%)
[1]; parasite line 6337 (2012, Kampong Speu)
  in-vitro PSA survival rate (%): 0.4%
[1]; parasite line 6341
  in-vitro susceptibility to PPQ: Resistant (resistant if survival rates were ≥10%)
[1]; parasite line 6341 (2012, Pursat)
  in-vitro PSA survival rate (%): 25.8%
[1]; parasite line 6349
  in-vitro susceptibility to PPQ: Sensitive (sensitive if survival rates were <10%)
[1]; parasite line 6349 (2012, Kampong Thom)
  in-vitro PSA survival rate (%): 0.6%
[1]; parasite line 6365
  in-vitro susceptibility to PPQ: Resistant (resistant if survival rates were ≥10%)
[1]; parasite line 6365 (2012, Battambang)
  in-vitro PSA survival rate (%): 51.8%
[1]; parasite line 6369
  in-vitro susceptibility to PPQ: Sensitive (sensitive if survival rates were <10%)
[1]; parasite line 6369 (2012, Pursat)
  in-vitro PSA survival rate (%): 6.4%
[1]; parasite line 6391
  in-vitro susceptibility to PPQ: Resistant (resistant if survival rates were ≥10%)
[1]; parasite line 6391 (2012, Battambang)
  in-vitro PSA survival rate (%): 39.4%
[1]; parasite line 6394
  in-vitro susceptibility to PPQ: Resistant (resistant if survival rates were ≥10%)
[1]; parasite line 6394 (2012, Battambang)
  in-vitro PSA survival rate (%): 56.7%
[1]; parasite line 6395
  in-vitro susceptibility to PPQ: Resistant (resistant if survival rates were ≥10%)
[1]; parasite line 6395 (2012, Battambang)
  in-vitro PSA survival rate (%): 19.2%
[1]; parasite line 6403
  in-vitro susceptibility to PPQ: Sensitive (sensitive if survival rates were <10%)
[1]; parasite line 6403 (2012, Pursat)
  in-vitro PSA survival rate (%): 0.5%
[1]; parasite line 6408
  in-vitro susceptibility to PPQ: Resistant (resistant if survival rates were ≥10%)
[1]; parasite line 6408 (2012, Battambang)
  in-vitro PSA survival rate (%): 58.7%
[1]; parasite line 6410
  in-vitro susceptibility to PPQ: Sensitive (sensitive if survival rates were <10%)
[1]; parasite line 6410 (2012, Battambang)
  in-vitro PSA survival rate (%): 6.0%
[1]; parasite line 6411
  in-vitro susceptibility to PPQ: Resistant (resistant if survival rates were ≥10%)
[1]; parasite line 6411 (2012, Battambang)
  in-vitro PSA survival rate (%): 71.6%
[1]; parasite line 6427
  in-vitro susceptibility to PPQ: Resistant (resistant if survival rates were ≥10%)
[1]; parasite line 6427 (2012, Battambang)
  in-vitro PSA survival rate (%): 77.4%
[1]; parasite line 6429
  in-vitro susceptibility to PPQ: Resistant (resistant if survival rates were ≥10%)
[1]; parasite line 6429 (2012, Pursat)
  in-vitro PSA survival rate (%): 51.8%
[1]; parasite line 6430
  in-vitro susceptibility to PPQ: Resistant (resistant if survival rates were ≥10%)
[1]; parasite line 6430 (2012, Battambang)
  in-vitro PSA survival rate (%): 51.3%
[1]; parasite line 6431
  in-vitro susceptibility to PPQ: Resistant (resistant if survival rates were ≥10%)
[1]; parasite line 6431 (2012, Battambang)
  in-vitro PSA survival rate (%): 61.5%
[1]; parasite line 6443
  in-vitro susceptibility to PPQ: Resistant (resistant if survival rates were ≥10%)
[1]; parasite line 6443 (2012, Battambang)
  in-vitro PSA survival rate (%): 49.6%
[1]; parasites harboring DNA expansion type 1 (N=13)
  In-vitro PSA survival rate, PSA mean value: 44.8%
[1]; parasites harboring DNA expansion type 2 (N=6)
  In-vitro PSA survival rate, PSA mean value: 64.9%
[1]; parasites harboring DNA expansion type 4 (N=2)
  In-vitro PSA survival rate, PSA mean value: 16.2%
[2]; isolates with unamplified (single copy) PfPM2
  median ex-vivo PSA survival rate: 0.004%
[2]; isolates with ≥2 PfPM2 copies
  median ex-vivo PSA survival rate: 51.7%
